Laboratory results from publication PMC7601839, “Anti-Acne Effects of Cembrene Diterpenoids from the Cultured Soft Coral Sinularia flexibilis” (Marine Drugs, 2020).

Columns and labels:
[1] = test system: LPS-induced RAW 264.7 cells (NO production); assay: NO production (Griess) in LPS-induced RAW 264.7 cells; type: cell-based
Method: (§1) Anti-inflammatory effects were analyzed in RAW 264.7 cells, which were cultured in DMEM with 10% FBS, 1% L-glutamine, and 1% penicillin-streptomycin, and maintained at 37 °C in a 5% CO2 atmosphere. RAW 264.7 cells (4.0 × 10^5 cells/mL) were seeded in 96-well plates and co-treated with LPS (500 ng/mL) and test samples. After 24 h, NO production was determined by Griess reagent, and the absorption was detected at 530 nm. The percentage inhibition of NO production was presented as the anti-inflammatory activity. PGE2 concentrations in cell culture media were determined with a PGE2 enzyme-linked immunosorbent assay (ELISA) kit (Enzo Life Sciences, Farmingdale, NY, USA). The survival rate of RAW 264.7 cells was detected using an MTT assay.

iNOS [2] = test system: iNOS; set-up: method as in PMID 23774887; conditions: LPS-stimulated RAW264.7 macrophage cells; cited from earlier work
A375 melanoma cells = test system: A375 melanoma cells; set-up: method as in PMID 23880933; conditions: cited from earlier work
RAW 264.7 cells = assay: Survival rate of RAW 264.7 cells by MTT assay; type: cell-based; conditions: LPS-induced RAW 264.7 cells, 24 h, 20 μM
Method: as §1

iNOS [3] = test system: iNOS; set-up: method as in PMID 23675440; conditions: LPS-stimulated murine macrophages; cited from earlier work
COX-2 [4] = test system: COX-2; set-up: method as in PMID 23774887; conditions: LPS-stimulated RAW264.7 macrophage cells; cited from earlier work
COX-2 [5] = test system: COX-2; set-up: method as in PMID 23675440; conditions: LPS-stimulated murine macrophages; cited from earlier work

Compound | inhibitory effects on NO expression [1] | NO Inhibition (%) ([1]; 24 h, 20 μM) | accumulation of the proinflammatory iNOS protein (iNOS [2]) | proliferation and migration of A375 melanoma cells (A375 melanoma cells) | Cell Viability (%) (RAW 264.7 cells) | expression of induced nitric oxide synthase (iNOS) (iNOS [3]) | accumulation of COX-2 protein (COX-2 [4]) | expression of cyclooxygenase (COX)-2 (COX-2 [5])
sinulariolide [SC-4] | no inhibitory effects | −4.3 ± 1.6 | significantly inhibit | inhibits the proliferation and migration | 98.8 ± 1.2 | – | – | –
C=C1C(=O)O[C@]2(C)CC[C@@H]1C[C@@H]1O[C@@]1(C)CC/C=C(\C)CC[C@H]2OC(C)=O [Ya-s11, 11-Episinulariolide acetate] | – | – | significantly inhibit | – | – | inhibits the expression | could reduce | inhibits the expression
